Test results from PubChem BioAssay AID1794825.

Target: Sodium- and chloride-dependent glycine transporter 2 (Homo sapiens) (UniProt Q9Y345)
Test: PubChem AID 1794825
Details: HEK-293 SLC6A5 OE, FLIPR membrane potential dye

Chain of Sodium- and chloride-dependent glycine transporter 2 (Homo sapiens) (Q9Y345 whole entry, looked up): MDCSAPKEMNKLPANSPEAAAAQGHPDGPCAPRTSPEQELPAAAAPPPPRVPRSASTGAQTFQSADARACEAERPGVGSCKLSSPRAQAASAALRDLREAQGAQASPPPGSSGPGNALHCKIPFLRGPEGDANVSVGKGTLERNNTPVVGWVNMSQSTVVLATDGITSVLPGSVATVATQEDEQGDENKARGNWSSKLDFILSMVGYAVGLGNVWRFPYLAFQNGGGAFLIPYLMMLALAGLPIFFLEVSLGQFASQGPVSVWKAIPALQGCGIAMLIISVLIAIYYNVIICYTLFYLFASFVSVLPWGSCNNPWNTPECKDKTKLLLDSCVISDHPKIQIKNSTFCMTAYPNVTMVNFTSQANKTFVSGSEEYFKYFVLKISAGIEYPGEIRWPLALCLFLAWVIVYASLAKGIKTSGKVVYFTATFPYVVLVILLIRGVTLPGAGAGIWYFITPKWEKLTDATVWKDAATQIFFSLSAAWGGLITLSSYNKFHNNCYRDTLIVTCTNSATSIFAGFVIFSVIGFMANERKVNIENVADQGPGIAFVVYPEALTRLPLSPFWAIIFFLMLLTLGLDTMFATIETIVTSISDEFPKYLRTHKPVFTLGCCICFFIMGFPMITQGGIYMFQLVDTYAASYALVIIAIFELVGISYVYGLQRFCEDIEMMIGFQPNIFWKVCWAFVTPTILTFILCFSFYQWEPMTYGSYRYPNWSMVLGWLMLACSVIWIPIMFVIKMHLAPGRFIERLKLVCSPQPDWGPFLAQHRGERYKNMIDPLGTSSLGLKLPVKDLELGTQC

`NCC(=O)O` was tested, and the EC50 was 128 µM.
